The record followed here is US20240382509A1, “Cannabinoids C- and O-glycosides possessing anti-proliferative and anti-metastatic properties and process for preparation thereof” (Council of Scientific and Industrial Research, priority 2021, published 2024).

Test [1] relates to Snail-1, Twist-1, Vimentin and E-cadherin in MIAPaCa-2 cells. The test is described as follows: Western blot of EMT markers. In kind it is cell-based, human. Conditions: 36 h, immunoblot. The protocol: Western Blot analysis. Briefly, MIAPaCa-2 cells were seeded in a 60 mm petri dish and maintained up to 70% confluency; afterward, the cells were treated with compound 2a (0.5, 1.5, 3 & 5 μM) for 36 h. After treatment, the cells were harvested washed thrice with ice-cold PBS and were subjected to protein lysis with lysis buffer (HEPES 1 mM/L, KCl 60 mM/L, NP-40 0.3%, EDTA 1 mM/L, DTT 1 mM/L, sodium orthovanadate 1 mM/L, PMSF 0.1 mM/L and cocktail protease inhibitor). The lysis product was centrifuged at 12000 rpm for 15 min at 4° C. to remove the cellular debris, and the supernatants were collected. Total protein was estimated with the help of the Bradford method. An equal amount of protein was subjected to SDS-PAGE, and consequently, after the protein was separated on SDS-PAGE based on their molecular weight, they were transferred onto the PVDF membrane. The membrane was blocked with 5% BSA and incubated in primary antibody prepared in 5% BSA (dilution ranging from 1:1000-1:2000) for 2-3 h. […] After washing with TBST, the protein expression was quantified by adding a chemiluminescent substrate on the membrane, and the signal obtained was captured in Biomax light x-ray films.
(§1) Now this particular derivative was further analysed for its ability to inhibit the molecular signatures of EMT. […]

For test [2], the system named is MIAPaCa-2 cells. The experiment in a line: In-situ gelatin degradation assay, MIAPaCa-2. In kind it is cell-based, human. Conditions: MIAPaCa-2, from 0.5 μM onwards, 36 h. Here is the method: Matrix gelatin degradation assay. In-situ gelatin degradation assay is performed to detect the formation of migratory structures (invadopodia & filopodia). Briefly, glass coverslips were coated with gelatin tagged with FITC, and the coated coverslips were dipped into 70% ethanol and immersed into a 6 well plate filled with RPMI and the coverslips were kept in a CO2 incubator for 1-2 h for preconditioning. Later on, both MIAPaCa-2 and MDA-MB-231 cells were seeded onto the coverslips and kept overnight for attachment. Treatment of the compound 2a (0.5, 1.5, 3 & 5 μM) was given on the next day and continued for 36 h. Upon termination, the coverslips were washed with ice-cold PBS, and then it was fixed in 4% paraformaldehyde for 15 min and then washed with PBS. Finally, the coverslips were mounted using mounting media consist of glycerol, and the edges were sealed with nail polish. After drying, the slides were observed under a fluorescence microscope to assess a degraded area's presence. The fluorescent images were captured, and the images were further processed in Image J software (Version 1.50i) to quantify the degraded area in each field.
as §1

In test [3] the test system is MIAPaCa-2 cells. The experiment in a line: Wound healing assay. It counts as cell-based, human. Conditions: MIAPaCa-2, 1, 2 and 3 μM, 36 h, compared to 2, 2b, 4, 4a, 4b. The protocol: Wound healing assay. MIAPaCa-2 cells (1×10^6) were seeded onto 6 well plates and grown up to more than 90% confluency, and wounds were created with sterile pipette tip (20-200 μL), and the media was replaced with serum-free media. Subsequently, the cells were treated with vehicle (DMSO), compounds 3 μM of 2 and 4, and their derivatives, i.e., 1, 2 and 3 μM of 2a, 2b, 4a, 4b for 36 h. Upon termination, the cells were washed with PBS, and images were captured under a microscope at 20× magnification (FIG. 4).

The subject of test [4] is MIAPaCa-2 cells. The test is described as follows: Phase contrast microscopy of cell morphology. In kind it is cell-based, human. Conditions: MIAPaCa-2, 0.5 μM to 5 μM.
Test [5] deals with MIAPaCa-2 cells. The test is described as follows: Cell scatter assay. It counts as cell-based, human. Conditions: MIAPaCa-2, 1, 2, 3 μM, 36 h, compared to vehicle and parent molecule. The protocol:
Cell scatter assay MIAPaCa-2 cells were seeded onto a 12 well plate at a seeding density of 500 cells/well and kept for 4-5 days, and there was the formation of scatter colonies since the cell line itself is a metastatic cell line. Accordingly, they were treated with 1 μM, 2 μM & 3 μM of compound 2, 2a, 2b, 3, 3a, 4, 4a & 4b for 36 h, and upon termination, they were washed with PBS and observed under an inverted microscope at 20× magnification (FIG. 3).

The next test has as its system HCT-116 cells. The test is described as follows: Annexin V/PI staining for apoptosis (FACS). It counts as cell-based. Conditions: HCT-116, 750 nM 5FU+3 μM 2a. Here is the method:
1×10^6 HCT-116 cells were seeded in 60 mm Petri dish and treated with vehicle, 3 μM 2a, 750 nM 5FU and 750 nM 5FU+3 μM 2a for indicated time points. After treatment termination, the cells were carefully trypsinized and the palette obtained were resuspended in 600 μL of binding buffer (10 mM HEPES [N-2-hydroxyethylpiperazine-N-2-ethanesulfonicacid], 140 mM NaCl, and 2.5 mM CaCl2, pH 7.4). Subsequently, the cells were stained with 6 μL of AnnexinV-FITC and 10 μL of propidium iodide for 20 min at room temperature in the dark. The samples were immediately analyzed by FACS (BD Accuri C6), and the scatter plot was obtained by BD Accuri C6 software.
The DNA damaging effect of compound 2a in combination with subtoxic doses of 5FU was further analyzed by Annexin/PI staining to check the activation of programmed cell death. […] Cumulatively, compound 2a elevated the DNA damaging effect and eventually leads to programmed cell death in combination with subtoxic doses of 5FU (FIG. 9b).

In the case of `CCCCCc1cc(O[C@@H]2OC(CO)[C@@H](O)C(O)C2O)c2c(c1)OC(C)(C)[C@@H]1CCC(C)=C[C@@H]21` (stereo partly drawn) [Compound 2a, Δ^9-tetrahydrocannabinol-1-O-β-D-glucopyranoside], in test [1] (MIAPaCa-2, 0.5, 1.5, 3 and 5 μM), the “expression of Snail-1, Twist-1 and Vimentin” value was “significant down modulation”. The “expression of E-cadherin” value in test [1] (MIAPaCa-2, from 1.5 to 5 μM) was “upregulated”. The gelatin degraded area entry in the test on MIAPaCa-2 cells [2] is reported as “significant loss of gelatin degraded area”. Moreover, the “anti-migratory properties in wound healing assay” value with MIAPaCa-2 cells [3] is given as “most prominent anti-migratory properties”. In addition, the “mesenchymal (fibroblastic) morphology” value in the test with MIAPaCa-2 cells [4] is “gradual loss of mesenchymal (fibroblastic) morphology”. Also, the cell scattering entry with MIAPaCa-2 cells [5] is reported as “typical clumping of scatter cells”. Also, the “apoptosis (Annexin+/PI+)” value in the test with HCT-116 cells is given as “induction of late phase of apoptosis”.
